Experimental findings from ChEMBL document CHEMBL5143625, “Isolation, synthesis and bioactivity evaluation of isoquinoline alkaloids from Corydalis hendersonii Hemsl. against gastric cancer in vitro and in vivo” (Bioorg Med Chem, 2022) are described below.

Bounds are passed on as bounds.

Data set [1] concerns MGC-803. The data set can be described thus: Antiproliferative activity against human MGC-803 cells assessed as reduction in cell viability after 24 hrs by MTT assay. In kind it is functional, cell-based. The following applies: MGC-803, 24 h. A general note: Formazan colour is commonly taken as a measure of viable cells.
Data set [2] has as its system HGC-27. Briefly: Antiproliferative activity against human HGC-27 cells assessed as reduction in cell viability after 24 hrs by MTT assay. In kind it is functional, cell-based. The following applies: HGC-27, 24 h.
For data set [3], the system named is GES1. Briefly: Antiproliferative activity against human GES1 cells assessed as reduction in cell viability after 24 hrs by MTT assay. In kind it is functional, cell-based. Particulars: GES1, 24 h.
For data set [4], the system named is MGC-803. Briefly: Antitumor activity against human MGC-803 cells xenografted in immunodeficient nude mouse assessed as tumor weight at 10 mg/kg, ip administered for 3 weeks (reference value: 157.8 mg). Type of data set: functional. (In general: Xenograft models place foreign cells or tissue in a host animal.)
Data set [5] can be described thus: Toxicity in immunodeficient nude mouse xenografted with human MGC-803 cells assessed as reduction in body weight at 10 mg/kg, ip administered for 3 weeks relative to control. Type of data set: organism-based. Further details: scale not given: the % may be the effect or the level left. The following applies: in vivo, 504 h.
Data set [6] concerns MGC-803. The data set can be described thus: Antitumor activity against human MGC-803 cells xenografted in immunodeficient nude mouse assessed as tumor volume at 10 mg/kg, ip administered for 3 weeks (reference value: 1039.6 mm3). In kind it is functional.

In the case of `COc1cc2c(cc1O)[C@@H]1Cc3ccc(OC)c(O)c3CN1CC2` [SCOULERINE], the figures for the IC50 in data set [1], in data set [2] and in data set [3] were 12.6 µM, 6.1 µM and 95.3 µM, respectively.

For the compound `CN1CCc2cc3c(cc2C(=O)Cc2ccc4c(c2C1)OCO4)OCO3`, the IC50 was 94.5 µM in data set [1], 121 µM in data set [2] and greater than 150 µM in data set [3].

`c1cc2c(c3c1CC1c4cc5c(cc4CCN1C3)OCO5)OCO2` (stereo not drawn): the IC50 in data set [1] is 107 µM; in data set [2] it was 55.1 µM; in data set [3], greater than 150 µM.

With `COc1cc(/C=C/C(=O)NCCc2ccc(O)cc2)ccc1O` [N-TRANS-FERULOYL TYRAMINE], the IC50 was 98.3 µM in data set [1], 84.5 µM in data set [2] and greater than 150 µM in data set [3].

For `CN1CCc2cc3c(cc2[C@H]1[C@H]1OC(=O)c2c1ccc1c2OCO1)OCO3`, the IC50 in data set [1] is greater than 150 µM; in data set [2], 100 µM; in data set [3] it was greater than 150 µM.

Turning to `COc1cc2c(cc1O)C1Cc3ccc4c(c3CN1CC2)OCO4` (stereo not drawn) [CHEILANTHIFOLINE], the IC50 in data set [1] worked out at 83.2 µM; in data set [2], 38.3 µM; in data set [3], 114 µM.

Turning to `COc1cc2c(cc1C(=O)c1nccc3cc4c(cc13)OCO4)OCO2`, the IC50 was 7.8 µM in data set [1], 9.3 µM in data set [2] and 76 µM in data set [3].

As for `COc1cc2c(cc1OC)C1Cc3ccc4c(c3CN1CC2)OCO4` (stereo not drawn), the values for the IC50 in data set [1], in data set [2] and in data set [3] were 94.3 µM, 81 µM and greater than 150 µM, respectively.

Turning to `O=C1NCCc2cc3c(cc21)OCO3` [NOROXYHYDRASTININE], the IC50 in data set [1] was greater than 150 µM; in data set [2], 120 µM; in data set [3] it was greater than 150 µM.

As to `COc1ccc2c(c1OC)CN(C)CCc1cc3c(cc1C(=O)C2)OCO3` [ALLOCRYPTOPINE], the IC50 was 109 µM in data set [1], 97.8 µM in data set [2] and greater than 150 µM in data set [3].

With `O=c1c2c3c(ccc2cc2n1CCc1cc4c(cc1-2)OCO4)OCO3`, the IC50 was 61.5 µM in data set [1], 54.6 µM in data set [2] and greater than 150 µM in data set [3].

`O=c1[nH]cc(F)c(=O)[nH]1` [FLUOROURACIL]: the values for the IC50 in data set [1], in data set [2] and in data set [3] were 28.6 µM, 45.2 µM and 49.6 µM, respectively. The Activity amounted to 157.8 mg in data set [4], 14.2% in data set [5] and 375.4 mm3 in data set [6].

Regarding `CC(=O)c1ccc2c(c1Cn1ccc3cc4c(cc3c1=O)OCO4)OCO2`, the IC50 stood at 79.9 µM in data set [1], 53.8 µM in data set [2] and 137 µM in data set [3].

Take `COc1cc2c(cc1Cc1nccc3cc4c(cc13)OCO4)OCO2`: the IC50 was greater than 150 µM in data set [1], 122 µM in data set [2] and greater than 150 µM in data set [3].

`CCOC(=O)c1c(C(=O)c2nccc3cc4c(cc23)OCO4)ccc2c1OCO2`: the IC50 in data set [1] was determined as 76 µM; in data set [2], 66.1 µM; in data set [3], 147 µM.

The term IC50 denotes the concentration that gives 50% inhibition.
